The record followed here is DBAASP.

For orientation: MIC means the lowest concentration found to suppress growth. Low readings indicate inhibition by little substance, high ones a need for much substance.

Some test systems named below: Aspergillus flavus; Candida albicans; Trichosporon beigelii; Malassezia furfur; Acinetobacter sp. M9013; Acinetobacter sp. M13523; Staphylococcus cohnii; Acinetobacter sp. M5949; Acinetobacter sp. M9665; Staphylococcus warneri; Escherichia coli M9884.
What all share (assay): ≥ marks a high value that may be exact or a test limit, other limits are often not marked, values filed in µg/mL are converted to µM
For experiment [1], the system named is Staphylococcus aureus DBFIQ S21.
The subject of experiment [2] is Listeria monocytogenes DBFIQ LM3.
In experiment [3] the test system is Staphylococcus aureus CCARM 3089.
Experiment [4] concerns Escherichia coli CCARM 1229.
The subject of experiment [5] is Pseudomonas aeruginosa KCTC 1637.
Experiment [6] has as its system Staphylococcus aureus CCARM 3114.
Experiment [7] relates to Staphylococcus epidermidis KCTC 1917.
The test system of experiment [8] is Bacillus subtilis KCTC 3068.
For experiment [9], the system named is Salmonella typhimurium CCARM 8003.
Experiment [10] relates to Staphylococcus aureus CCARM 3108.
For experiment [11], the system named is Salmonella typhimurium KCTC 1926.
Experiment [12] deals with Staphylococcus aureus KCTC 1621.
For experiment [13], the system named is Escherichia coli KCTC 1682.
The subject of experiment [14] is Salmonella typhimurium CCARM 8007.
Experiment [15] relates to Enterococcus faecalis M6534.
Experiment [16] deals with Pseudomonas aeruginosa ATCC 27853.
Experiment [17] concerns Enterococcus faecalis ATCC 29212.
Experiment [18] concerns Enterococcus gallinarum M2723.
For experiment [19], the system named is Staphylococcus aureus M6276.
In experiment [20] the test system is Pseudomonas aeruginosa PACO12.
Experiment [21] relates to Staphylococcus epidermidis M2921.
Experiment [22] deals with Staphylococcus hominis M2967.
The subject of experiment [23] is Pseudomonas aeruginosa M5470.
Experiment [24] deals with Enterococcus gallinarum M2685.
In experiment [25] the test system is Enterococcus faecalis ATCC 51299.
The test system of experiment [26] is Staphylococcus haemolyticus M2976.
Experiment [27] has as its system Klebsiella pneumoniae PFAV 3.
The test system of experiment [28] is Enterococcus faecalis M6983.
Experiment [29] relates to Staphylococcus aureus P204.
Experiment [30] relates to Klebsiella pneumoniae M9170.
Experiment [31] relates to Enterococcus faecium PZAP 95.
Experiment [32] concerns Staphylococcus aureus ATCC 25923.
Experiment [33] has as its system Staphylococcus saprophyticus M4070.
Experiment [34] relates to Staphylococcus epidermidis M2923.
The test system of experiment [35] is Staphylococcus hominis M2973.
Experiment [36] deals with Enterococcus faecium M2304.
Experiment [37] concerns Enterococcus faecalis M4899.
In experiment [38] the test system is Escherichia coli ATCC 25922.
The test system of experiment [39] is Staphylococcus aureus P33.
The subject of experiment [40] is Pseudomonas aeruginosa M13513.

Values after ≈ are worked out from the molar mass of the structure shown. Values joined by “and” are separate entries in the source; they are usually repeats but may differ in a detail not shown here. Identical values can stand only once. Where only a bound is given, the exact number is not on record here.

As to `CC[C@H](C)[C@H](NC(=O)[C@H](C)NC(=O)[C@@H](NC(=O)[C@H](C)NC(=O)CN)[C@@H](C)O)C(=O)N[C@@H](CCCCN)C(=O)N[C@@H](CCC(N)=O)C(=O)N[C@H](C(=O)N[C@@H](CCCCN)C(=O)N[C@@H](CCCCN)C(=O)N[C@@H](CC(C)C)C(=O)N[C@@H](Cc1c[nH]c2ccccc12)C(=O)N[C@@H](CCCCN)C(=O)N[C@@H](CCCCN)C(=O)N[C@@H](CCCCN)C(=O)NCC(=O)NCC(N)=O)C(C)C` [GATAIKQVKKLWKKKGG], the MIC in experiment [1] and in experiment [2] was no less than 69.6 µM throughout.

Consider `CC[C@H](C)[C@H](NC(=O)[C@H](C)NC(=O)[C@H](CC(C)C)NC(=O)[C@H](Cc1c[nH]c2ccccc12)NC(=O)[C@H](CC(C)C)NC(=O)[C@@H](N)CCCN=C(N)N)C(=O)NCC(=O)N[C@@H](CCCN=C(N)N)C(=O)N[C@@H](CCCN=C(N)N)C(N)=O` [RLWLAIGRR], for which the MIC in experiment [3] turned out to be 8 µM (≈ 9.12 µg/mL); in experiment [4], 8 µM (≈ 9.12 µg/mL); in experiment [5], 16 µM (≈ 18.2 µg/mL); in experiment [6], 16 µM (≈ 18.2 µg/mL); in experiment [7], 2 µM (≈ 2.28 µg/mL); in experiment [8], 4 µM (≈ 4.56 µg/mL). In addition, the MIC in experiment [9] is no less than 32 µM; in [10] it was 4 µM (≈ 4.56 µg/mL); in experiment [11] it was 16 µM (≈ 18.2 µg/mL); in experiment [12], 4 µM (≈ 4.56 µg/mL); in [13] it was 4 µM (≈ 4.56 µg/mL).

`CC(C)C[C@H](NC(=O)[C@H](Cc1c[nH]c2ccccc12)NC(=O)[C@H](CC(C)C)NC(=O)[C@@H](N)CCCN=C(N)N)C(=O)N[C@@H](C)C(=O)N[C@@H](Cc1c[nH]c2ccccc12)C(=O)N[C@@H](CCCCN)C(=O)N[C@@H](CCCN=C(N)N)C(=O)N[C@@H](CCCN=C(N)N)C(N)=O` [RLWLAWKRR]: the MIC in [3] was 4 µM (≈ 5.13 µg/mL); with Aspergillus flavus it was 5 µM (≈ 6.42 µg/mL); in experiment [4] it was 4 µM (≈ 5.13 µg/mL); in experiment [5] it was 8 µM (≈ 10.3 µg/mL); in [14], 8 µM (≈ 10.3 µg/mL); in [6] it was 8 µM (≈ 10.3 µg/mL). Besides, the MIC in the experiment on Candida albicans was 2.5 µM (≈ 3.21 µg/mL); in [7], 1 µM (≈ 1.28 µg/mL); in experiment [8] it was 2 µM (≈ 2.57 µg/mL); in experiment [9] it was 4 µM (≈ 5.13 µg/mL); with Trichosporon beigelii, 5 µM (≈ 6.42 µg/mL); in experiment [11] it was 2 µM (≈ 2.57 µg/mL). Further, the minimum inhibitory concentration (MIC) in experiment [12] was 2 µM (≈ 2.57 µg/mL); with Malassezia furfur it was 1.25 µM (≈ 1.6 µg/mL); in experiment [13] it was 2 µM (≈ 2.57 µg/mL).

For the molecule `C[C@H](NC(=O)[C@H](CCCCN)NC(=O)[C@H](CCCCN)NC(=O)[C@H](CCCN=C(N)N)NC(=O)CNC(=O)[C@H](Cc1c[nH]c2ccccc12)NC(=O)[C@H](CCCN=C(N)N)NC(=O)[C@H](CCCN=C(N)N)NC(=O)[C@H](CCCCN)NC(=O)[C@H](Cc1c[nH]c2ccccc12)NC(=O)[C@H](CCCCN)NC(=O)[C@H](Cc1c[nH]c2ccccc12)NC(=O)[C@H](Cc1c[nH]c2ccccc12)NC(=O)[C@H](CCCCN)NC(=O)[C@@H]1CCCN1C(=O)[C@@H](N)Cc1c[nH]c2ccccc12)C(=O)N[C@@H](CCCCN)C(=O)N[C@@H](CCCCN)C(=O)N[C@@H](CCCN=C(N)N)C(=O)N[C@@H](CCCN=C(N)N)C(=O)NCC(N)=O` [WPKWWKWKRRWGRKKAKKRRG], the minimum inhibitory concentration (MIC) was no less than 44 µM in experiment [15]; 22 µM (≈ 64 µg/mL) in experiment [16]; 22 µM (≈ 64 µg/mL) in experiment [17]; 11 µM (≈ 32 µg/mL) in the experiment with Acinetobacter sp. M9013; 11 µM (≈ 32 µg/mL) in [18]; 5.5 µM (≈ 16 µg/mL) in experiment [19]. Also, the minimal inhibitory concentration (MIC) in [20] was 22 µM (≈ 64 µg/mL); in experiment [21], 2.75 µM (≈ 8 µg/mL); in experiment [22], 2.75 µM (≈ 8 µg/mL); in [23], no less than 44 µM; in experiment [24], 5.5 µM (≈ 16 µg/mL); in the experiment on Acinetobacter sp. M13523, 22 µM (≈ 64 µg/mL). In addition, the MIC in experiment [25] was no less than 88 µM; in [26] it was 5.5 µM (≈ 16 µg/mL); against Staphylococcus cohnii it was 5.5 µM (≈ 16 µg/mL); in experiment [27] it was no less than 352 µM; in the experiment on Acinetobacter sp. M5949 it was no less than 88 µM; in experiment [28], 22 µM (≈ 64 µg/mL). In addition, the MIC in experiment [29] was 22 µM (≈ 64 µg/mL); in [30] it was no less than 352 µM; against Acinetobacter sp. M9665, no less than 44 µM; in [31] it was 11 µM (≈ 32 µg/mL); in experiment [32] it was 11 µM and 10.9 µM; in [33], 5.5 µM (≈ 16 µg/mL). The MIC in [34] was 5.5 µM (≈ 16 µg/mL); against Staphylococcus warneri, 2.75 µM (≈ 8 µg/mL); in experiment [35], 1.37 µM (≈ 4 µg/mL); against Escherichia coli M9884, no less than 44 µM; in [36] it was 5.5 µM (≈ 16 µg/mL); in experiment [37] it was no less than 88 µM. Further, the MIC in experiment [38] is 44 µM and 43.9 µM; in experiment [39] it was 11 µM (≈ 32 µg/mL); in experiment [40], 11 µM (≈ 32 µg/mL).
